Eleven molecules from patent publication US20080045514A1 (Cytovia, Inc., priority 2006, published 2008) can be followed below.

Where a name gives a salt, the structure may show the parent alone. Read-outs that look alike come from different tables or passages of the source.

Format in all cases: cell-based
Assay [1] has as its system human lymphoma cell line Raji. Put plainly: Caspase cascade activation (EC50), Raji. Particulars: RAJI cells, read-out: caspase potency (EC50) RAJI. A digest of the protocol:
(§1)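 Fluorogenic DEVD-R110 cleavage at 485/530 nm gives the read-out, taken 3 h after substrate addition and corrected by the control's T=0 background. Compound-treated over control net RFU ratio was fitted sigmoidally for EC50. Cells had been treated 48 h at 0.016 to 10 μM final.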

Assay [2] has as its system human colon carcinoma cell line HCT116. Put plainly: Caspase cascade activation (EC50), HCT116. As to conditions: HCT116 cells, caspase cascade activation, read-out: caspase potency (EC50) HCT116. In a few lines:
as §1

The subject of assay [3] is human B cell lymphoblastoid cell line Ramos. Put plainly: Caspase cascade activation (EC50), Ramos. Particulars: RAMOS cells, read-out: caspase potency (EC50) RAMOS. A digest of the protocol:
as §1

Assay [4] has as its system human breast cancer cell line T-47D. Put plainly: Caspase cascade activation (EC50), T-47D. Particulars: T47D cells, caspase cascade activation, read-out: caspase potency (EC50) T47D. A digest of the protocol:
as §1

Assay [5] concerns human leukemia cell line K562. Put plainly: Inhibition of cell proliferation (GI50), K562. As to conditions: K562 cells, 48 h, CellTiter-Glo. How it is done:
(§2) Human breast cancer cell lines T-47D, human hepatocellular carcinoma cell line SNU398, human colon carcinoma cell line HCT116, human lung cancer cell line H1299, human leukemia cell line K562, human lymphoma cell line Raji, human B cell lymphoblastoid cell line Ramos, and human Burkitt's lymphoma cell line Namalwa were grown and harvested as in Example 100. An aliquot of […] of cells (4.4×10^4 cells/mL) was added to a well of a 96-well microtiter plate containing 5 μL of a 10% DMSO in RPMI-1640 media solution containing 10 nM to 100 μM of 3-(2-chlorophenyl)-6-(3,4-methylenedioxyphenyl)-7H-[1,2,4]triazolo[3,4-b][1,3,4]thiadiazine (1 nM to 10 μM final). An aliquot of 45 μL of cells was added to a well of a 96-well microtiter plate containing 5 μL of a 10% DMSO in RPMI-1640 media solution without compound as the control sample for maximal cell proliferation (LMax). The samples were mixed by agitation and then incubated at 37° C. for 48 h in a 5% CO2-95% humidity incubator. After incubation, the samples were removed from the incubator and 25 μL of CellTiter-Glo™ reagent (Promega) was added. The samples were mixed by agitation and incubated at room temperature for 10-15 min. Plates were then read using a luminescent plate reader (Model SPECTRAfluor Plus, Tecan) to give Ltest values.
(§3) The samples were mixed by agitation and then incubated at 37° C. for 0.5 h in a 5% CO2-95% humidity incubator. After incubation, the samples were removed from the incubator and 25 μL of CellTiter-Glo™ reagent (Promega) was added. The samples were mixed by agitation and incubated at […] 10-15 min at room temperature in a 5% CO2-95% humidity incubator. Fluorescence was read as above, (LStart) defining luminescence for initial cell number used as baseline in GI50 determinations.
(§4) Calculation: GI50 (dose for 50% inhibition of cell proliferation) is the concentration where [(Ltest−LStart)/(LMax−LStart)]=0.5.
In general terms: Cellular ATP, detected with luciferase, serves as a proxy for viable cell number.

Assay [6] concerns human B cell lymphoblastoid cell line Ramos. Put plainly: Inhibition of cell proliferation (GI50), Ramos. As to conditions: Ramos cells, 48 h, CellTiter-Glo. How it is done:
as §2, §3, §4

Assay [7] relates to human lymphoma cell line Raji. Put plainly: Inhibition of cell proliferation (GI50), Raji. As to conditions: Raji cells, 48 h, CellTiter-Glo. How it is done:
as §2, §3, §4

Assay [8] has as its system human Burkitt's lymphoma cell line Namalwa. Put plainly: Inhibition of cell proliferation (GI50), Namalwa. Particulars: Namalwa cells, 48 h, CellTiter-Glo. How it is done:
as §2, §3, §4

In assay [9] the test system is human colon carcinoma cell line HCT116. Put plainly: Inhibition of cell proliferation (GI50), HCT116. As to conditions: HCT 116 cells, 48 h, CellTiter-Glo. How it is done:
as §2, §3, §4

Assay [10] has as its system human Burkitt's lymphoma cell line Namalwa. Put plainly: Caspase cascade activation (EC50), Namalwa. As to conditions: Namalwa cells, caspase cascade activation, read-out: caspase potency (EC50) Namalwa. A digest of the protocol:
as §1

In assay [11] the test system is human hepatocellular carcinoma cell line SNU398. Put plainly: Caspase cascade activation (EC50), SNU398. As to conditions: SNU398 cells, caspase cascade activation, read-out: caspase potency (EC50) SNU398. In a few lines: as §1
Where [12] appears, read: Homo sapiens, Burkitts lymphoma cell.

As a reminder, the EC50 is the concentration that produces a half-maximal response. The term GI50 denotes the concentration at which growth is held to half of that of the control.

In the case of `COc1ccc(C2=Nn3c(nnc3-c3cccc(F)c3)SC2)cc1` [Example C3], the half-maximal effective concentration (EC50) in assay [1] (Homo sapiens) is 247 nM; in assay [2] (Homo sapiens, HCT-116) it was 424 nM; in assay [3] (Homo sapiens), 152 nM; in [4] (Homo sapiens) it was 1710 nM; in assay [10] (setting [12]), 132 nM; in [11] (Homo sapiens, SNU-398), 126 nM. Besides, the GI50 in assay [5] (Homo sapiens) was 63 nM; in [6] (Homo sapiens), 100 nM; in [7] (Homo sapiens), 130 nM; in [8] (setting [12]) it was 112 nM; in [9] (Homo sapiens), 852 nM.
For the molecule `COc1ccc(-c2nnc3n2N=C(c2ccc(C)cc2)CS3)cc1OC` [Example 14, 3-(3,4-Dimethoxyphenyl)-6-(4-methylphenyl)-7H-[1,2,4]triazolo[3,4-b][1,3,4]thiadiazine hydrobromide], the concentration giving a half-maximal response (EC50) turned out to be 198 nM in assay [1] (Homo sapiens); 107 nM in [2] (Homo sapiens, HCT-116); 125 nM in assay [3] (Homo sapiens); 396 nM in assay [4] (Homo sapiens); 131 nM in [10] (setting [12]); 65 nM in assay [11] (Homo sapiens, SNU-398). The 50% growth inhibitory concentration (GI50) in assay [5] (Homo sapiens) was 87 nM; in [6] (Homo sapiens), 300 nM; in assay [7] (Homo sapiens), 838 nM; in assay [8] (setting [12]), 137 nM; in assay [9] (Homo sapiens) it was 1010 nM.
With `COc1cc(-c2nnc3n2N=C(c2ccc(C)cc2)CS3)cc(OC)c1O` [Example 13, 3-(3,5-Dimethoxy-4-hydroxyphenyl)-6-(4-methylphenyl)-7H-[1,2,4]triazolo[3,4-b][1,3,4]thiadiazine hydrobromide], the EC50 amounted to 52 nM in assay [1] (Homo sapiens); 189 nM in [2] (Homo sapiens, HCT-116); 69 nM in assay [3] (Homo sapiens); 625 nM in [4] (Homo sapiens); 73 nM in assay [10] (setting [12]); 101 nM in [11] (Homo sapiens, SNU-398). Further, the 50% growth inhibitory concentration (GI50) was determined as 51 nM in [5] (Homo sapiens); 50 nM in assay [6] (Homo sapiens); 97 nM in assay [7] (Homo sapiens); 18 nM in [8] (setting [12]); 165 nM in assay [9] (Homo sapiens).
In the case of `CCN(CC)c1ccc(C2=Nn3c(nnc3-c3ccccc3OC)SC2)cc1` [Example 23, 6-(4-Diethylaminophenyl)-3-(2-methoxyphenyl)-7H-[1,2,4]triazolo[3,4-b][1,3,4]thiadiazine], the 50% effective concentration (EC50) was found to be 27 nM in assay [1] (Homo sapiens); 26 nM in assay [2] (Homo sapiens, HCT-116); 27 nM in assay [3] (Homo sapiens); 32 nM in assay [4] (Homo sapiens); 15 nM in [10] (setting [12]); 18 nM in [11] (Homo sapiens, SNU-398). Also, the 50% growth inhibitory concentration (GI50) turned out to be 2 nM in assay [5] (Homo sapiens); 3 nM in [6] (Homo sapiens); 2 nM in assay [7] (Homo sapiens); 7 nM in assay [8] (setting [12]); 13 nM in [9] (Homo sapiens).
On to `COc1ccc(C2=Nn3c(nnc3-c3n[nH]c4c3CCC4)SC2)cc1` [Example V2], for which the concentration for a half-maximal effect (EC50) in assay [1] (Homo sapiens) amounted to 444 nM; in assay [2] (Homo sapiens, HCT-116), 268 nM; in assay [3] (Homo sapiens) it was 256 nM; in [4] (Homo sapiens) it was 312 nM; in assay [10] (setting [12]), 250 nM; in [11] (Homo sapiens, SNU-398), 195 nM. In addition, the GI50 in [5] (Homo sapiens) turned out to be 400 nM; in assay [6] (Homo sapiens), 346 nM; in [7] (Homo sapiens), 1260 nM; in assay [8] (setting [12]), 975 nM; in assay [9] (Homo sapiens), 1130 nM.
`COc1ccc(C2=Nn3c(nnc3-c3ccc(Br)cc3)SC2)cc1` [Example E3]: the concentration giving a half-maximal response (EC50) in assay [1] (Homo sapiens) was found to be 125 nM; in [2] (Homo sapiens, HCT-116), 157 nM; in assay [3] (Homo sapiens) it was 77 nM; in assay [4] (Homo sapiens), 244 nM; in assay [10] (setting [12]), 48 nM; in [11] (Homo sapiens, SNU-398), 85 nM. In addition, the GI50 in assay [5] (Homo sapiens) is 33 nM; in assay [6] (Homo sapiens) it was 21 nM; in assay [7] (Homo sapiens) it was 66 nM; in [8] (setting [12]), 47 nM; in assay [9] (Homo sapiens), 200 nM.
In the case of `COc1ccc(-c2nnc3n2N=C(c2ccc(N(C)C)cc2)CS3)cc1OC` [Example 30, 6-(4-Dimethylminophenyl)-3-(3,4-dimethoxyphenyl)-7H-[1,2,4]triazolo[3,4-b][1,3,4]thiadiazine], the EC50 in assay [1] amounted to 64 nM; in assay [2], 221 nM; in assay [3], 57 nM; in [4], 360 nM; in assay [10], 55 nM; in [11] it was 119 nM. Also, the GI50 in assay [5] was determined as 50 nM; in assay [6], 100 nM; in [7], 157 nM; in [8], 102 nM; in [9] it was 126 nM.
Turning to `COc1ccccc1-c1nnc2n1N=C(c1ccc(O)cc1)CS2` [Example 7, 6-(4-Hydroxyphenyl)-3-(2-methoxyphenyl)-7H-[1,2,4]triazolo[3,4-b][1,3,4]thiadiazine hydrobromide], the EC50 in assay [1] (Homo sapiens) is 478 nM; in [2] (Homo sapiens, HCT-116), 280 nM; in assay [3] (Homo sapiens), 262 nM; in [4] (Homo sapiens) it was 173 nM; in [10] (setting [12]), 253 nM; in assay [11] (Homo sapiens, SNU-398) it was 148 nM. Also, the concentration for 50% growth inhibition (GI50) in assay [5] (Homo sapiens) was 219 nM; in assay [6] (Homo sapiens), 176 nM; in [7] (Homo sapiens), 1000 nM; in assay [8] (setting [12]), 579 nM; in [9] (Homo sapiens), 1180 nM.
Consider `COc1ccc(C2=Nn3c(nnc3-c3ccc(C)cc3)SC2)cc1` [Example U2], for which the EC50 in assay [1] (Homo sapiens) is 190 nM; in [2] (Homo sapiens, HCT-116), 168 nM; in assay [3] (Homo sapiens), 127 nM; in assay [4] (Homo sapiens) it was 537 nM; in assay [10] (setting [12]), 129 nM; in assay [11] (Homo sapiens, SNU-398) it was 86 nM. The 50% growth inhibitory concentration (GI50) in assay [5] (Homo sapiens) is 72 nM; in [6] (Homo sapiens), 100 nM; in assay [7] (Homo sapiens), 730 nM; in assay [8] (setting [12]), 256 nM; in assay [9] (Homo sapiens), 1100 nM.
Regarding `COc1ccccc1-c1nnc2n1N=C(c1ccc(OCCO)cc1)CS2` [Example 10, 6-(4-(2-Hydroxyethoxy)phenyl)-3-(2-methoxyphenyl)-7H-[1,2,4]triazolo[3,4-b][1,3,4]thiadiazine], the EC50 in assay [1] (Homo sapiens) is 431 nM; in assay [2] (Homo sapiens, HCT-116) it was 612 nM; in [3] (Homo sapiens) it was 306 nM; in assay [4] (Homo sapiens) it was 300 nM; in assay [10] (setting [12]), 254 nM; in assay [11] (Homo sapiens, SNU-398) it was 267 nM. The concentration for 50% growth inhibition (GI50) in assay [5] (Homo sapiens) was determined as 315 nM; in [6] (Homo sapiens) it was 173 nM; in assay [7] (Homo sapiens), 746 nM; in assay [8] (setting [12]), 618 nM; in [9] (Homo sapiens), 1670 nM.
As to `COc1ccc(C2=Nn3c(nnc3-c3ccccc3C)SC2)cc1` [Example N2, 3-(2-Methylphenyl)-6-(4-methoxyphenyl)-7H-[1,2,4]triazolo[3,4-b][1,3,4]thiadiazine], the EC50 in assay [1] (Homo sapiens) was 53 nM; in assay [2] (Homo sapiens, HCT-116), 34 nM; in [3] (Homo sapiens) it was 29 nM; in assay [4] (Homo sapiens) it was 191 nM; in assay [10] (setting [12]) it was 41 nM; in [11] (Homo sapiens, SNU-398), 31 nM. Also, the GI50 in assay [5] (Homo sapiens) stood at 38 nM; in [6] (Homo sapiens) it was 13 nM; in assay [7] (Homo sapiens), 164 nM; in assay [8] (setting [12]) it was 34 nM; in assay [9] (Homo sapiens), 171 nM.
